Experiments:
Albino wistar rats = experiment: Hypoglycemic activity: inhibition of sucrose-induced raise in serum glucose levels (SGL); assay type: in vivo; parameters: Inhibitory rate (serum glucose level inhibitory rate): unit not given here; settings: oral dose 1 mg/Kg; for SGL (mean ± SE): 20 mL/kg of 20% sucrose orally after 30 minutes, blood drawn one hour after treatment, groups of six rats; for Inhibitory rate (serum glucose level inhibitory rate): mean increase in serum glucose levels of treated vs control groups
Experimental: Hypoglycemic activity: Hypoglycemic activity was tested by the inhibition of sucrose-induced raise in serum glucose levels (SGL), by the test substances in Albino wistar rats. The procedure involves fasting the rats for overnight at ad libitum water, numbered weighed and randomly divided into groups of six animals each. Prior to treatment blood samples were drawn from sinus orbital plexus of all animals using heparin coated glass capillaries under mild ether anesthesia. The blood samples were tested for serum glucose levels using enzymatic GOD/POD method. […] SGL=(test OD/Standard OD)×100 and the results were expressed in mg/dL. All the groups were treated orally with corresponding test substances, standard, vehicle (5% gum acacia). After 30 minutes, all animals were given 20 mL/kg of 20% sucrose solution orally using gastric tube. One hour after treatment, blood samples were drawn again under mild ether anesthesia and tested for serum glucose levels in a same procedure as described above for initial serum glucose estimation. The data was subjected to statistical treatment using t-test and inhibitory rate was calculated by comparing mean increase in serum glucose levels of control and treated groups. The corosolic acid analogs of this invention are found to show better hypoglycemic activity (Table 1; hypoglycemic activity is expressed in serum glucose level inhibitory rate values; higher the inhibitory rate value, higher is the activity) than the corosolic acid.

[1] = test system: Brine shrimp (Artemia salina) nauplii; experiment: in vivo; settings: 24 h at 37° C., 10 nauplii per vial
Experimental: (§1) Brine shrimp lethality: Brine shrimp (Artemia salina) nauplii were hatched using brine shrimp eggs in a conical shaped vessel (1 L), filled with sterile artificial sea water (prepared using sea salt 38 g/L and adjusted to pH 8.5 using 1 N NaOH) under constant aeration for 48 h. After hatching, 10 nauplii were drawn through a pepette and placed in each vial containing 4.5 mL brine solution and added various concentrations of drug solutions and volume was made upto 5 mL using brine solution and maintained at 37° C. for 24 h under the light of incandescent lamps and surviving larvae were counted. Each experiment was conducted along with control (vehicle treated), at various concentrations of the test substance in each set that contains 6 tubes and the average results are reported. The percentage lethality was determined by comparing the mean mortal larvae of test and control tubes. LC50 values were obtained from the plot of concentration (μg) vs. percentage lethality. Podophyllotoxin was used as a positive control.
(§2) The corosolic acid analogs of this invention are found to show significant brine shrimp lethality (Table 3; brine shrimp lethality is expressed in LC50 at μM concentration; lower the LC50 value, higher is the activity).

5-Lipoxygenase = 5-Lipoxygenase inhibitory activity, colorimetric method (ferric xylenol orange, linoleic acid); assay type: biochemical
Experimental: 5-Lipoxygenase activity: The corosolic acid analogs were screened for their 5-Lipoxygenase inhibitory potential using colorimetric method. The assay mixture contained 50 mM phosphate buffer pH 6.3, 5-Lipoxygenase, various concentrations of test substances in dimethyl sulphoxide and linoleic acid in a total volume of 0.5 mL, after 5 min incubation of above reaction mixture, 0.5 mL ferric xylenol orange reagent was added and OD was measured after two minutes at 585 nm using spectrophotometer. Controls were run along with test in a similar manner except using vehicle instead of test substance solution. Percent inhibition was calculated by comparing absorbance of test solution with that of control.
The corosolic acid analogs of this invention are found to show good 5-lipoxygenase activity (Table 2; 5-lipoxygenase activity is expressed in % of inhibition at 100 μM and 250 μM; higher the % inhibitory values, higher is the activity).

in vivo = settings: Artemia salina (brine shrimp), pH 8.5; 24 h at 37° C., 10 nauplii per vial
Experimental: as §1, §2

## COc1cc(C(=O)OC(=O)C23CCC(C)C(C)C2C2=CCC4C5(C)CC(O)C(O)C(C)(C)C5CCC4(C)C2(C)CC3)cc(OC)c1OC (centres unmarked) [Compound 25, Corosolyl tri-O-methylgallate]
Albino wistar rats
  SGL (mean ± SE): 131.84 ± 7.77 mg/dL
  Inhibitory rate (serum glucose level inhibitory rate): 9.84
[1]
  LC50: > 200 µM
5-Lipoxygenase; 250 μM
  % inhibition of 5-Lox activity: 38.83%

## CC1CCC23CCC4(C)C(=CC(OC2=O)C2C5(C)CC(O)C(O)C(C)(C)C5CCC24C)C3C1C (stereo not drawn) [Compound 26, 2α,3β-Dihydroxyurs-12-en-11,28-olide]
Albino wistar rats
  SGL (mean ± SE): 136.03 ± 4.43 mg/dL
  Inhibitory rate (serum glucose level inhibitory rate): 6.97
[1]
  LC50: 87 µM
5-Lipoxygenase; 250 μM
  % inhibition of 5-Lox activity: 10.47%

## C[C@H]1[C@H](C)CC[C@]2(C(=O)O)CC[C@]3(C)C(=CC[C@@H]4[C@@]5(C)C[C@@H](O)[C@H](O)C(C)(C)[C@@H]5CC[C@]43C)[C@H]12 [Corosolic acid, 2α-hydroxyursolic acid]
Albino wistar rats
  SGL (mean ± SE): 121.43 ± 6.27 mg/dL
  Inhibitory rate (serum glucose level inhibitory rate): 9.78
In vivo
  LC50 at 24 h: 3 µM
5-Lipoxygenase
  5-LOX inhibitory activity (in words): on par with 3-O-acetyl-11-keto-β-boswellic acid (AKBA)
5-Lipoxygenase; 100 μM
  % inhibition of 5-Lox activity: 13.48%
5-Lipoxygenase; 250 μM
  % inhibition of 5-Lox activity: 29.26%

## COc1cc([C@@H]2c3cc4c(cc3[C@H](O)[C@H]3COC(=O)[C@H]23)OCO4)cc(OC)c1OC [podophyllotoxin, Podophyllotoxin, reference compound]
In vivo
  LC50 at 24 h: 7.7 µM

## Corosolinol [Compound 23]
Albino wistar rats
  SGL (mean ± SE): 113.06 ± 2.61 mg/dL
  Inhibitory rate (serum glucose level inhibitory rate): 30.59
[1]
  LC50: 30.7 µM
5-Lipoxygenase; 100 μM
  % inhibition of 5-Lox activity: 2.91%
5-Lipoxygenase; 250 μM
  % inhibition of 5-Lox activity: 19.63%

Source: patent publication US7893263B2, “Structural analogs of corosolic acid having anti-diabetic and anti-inflammatory properties” (Laila Nutraceuticals, priority 2004, dated 2011)
